Assay results reported in article doi:10.1101/538157v1 (biorxiv, 2019).

Tests used:
[1] = molecular target: T1, CAMKK2-KD (kinase domain of CAMKK2) (Homo sapiens, UniProt Q96RR4); assay: biochemical; details: read-out: ΔTm (°C) 96-well
[2] = molecular target: T1, CAMKK2-KD (kinase domain of CAMKK2); assay: isothermal titration calorimetry; assay type: binding

T1 sequence (Q96RR4 161-449): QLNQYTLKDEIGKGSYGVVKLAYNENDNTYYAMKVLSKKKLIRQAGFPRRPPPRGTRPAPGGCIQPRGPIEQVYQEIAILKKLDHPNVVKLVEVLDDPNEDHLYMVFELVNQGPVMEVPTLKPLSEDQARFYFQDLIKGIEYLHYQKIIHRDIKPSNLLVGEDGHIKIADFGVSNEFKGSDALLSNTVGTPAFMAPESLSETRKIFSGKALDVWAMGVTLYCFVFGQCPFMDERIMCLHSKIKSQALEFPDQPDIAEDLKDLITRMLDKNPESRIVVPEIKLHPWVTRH

ΔTm at 12 µM [1] [°C]	Kd [2] [nM]	Structure (SMILES)
7.5	–	c1ccc(-c2cnc(Nc3ccc(OCCN4CCCC4)cc3)s2)cc1 [Flt3 Inhibitor III]
9.4	–	Cn1cc(/C=C2\C(=O)Nc3ccc(S(N)(=O)=O)cc32)c2ccccc21 [Syk Inhibitor]
–	5.8	COc1cc(N2CCC(N(C)C)CC2)ccc1Nc1ncc(Cl)c(Nc2ccccc2P(C)(C)=O)n1 [ALK-IN-1]

More lines, now with the values behind:

Structure (SMILES)	ΔTm at 12 µM [1] [°C]	Kd [2] [nM]
CC(C)(C)c1nc2c3cc[nH]c(=O)c3c3cc(F)ccc3c2[nH]1 [JAK Inhibitor I]	4.7	–
COc1cc2c(Nc3cc(Cl)c(OC)c(Cl)c3)c(C#N)cnc2cc1OCCCN1CCN(C)CC1 [Bosutinib isomer]	4.1	–
CC[C@@H]1C(=O)N(C)c2cnc(Nc3ccc(C(=O)N[C@H]4CC[C@H](N5CCN(CC6CC6)CC5)CC4)cc3OC)nc2N1C(C)C [BI 6727]	–	8.1
